Data taken from US10017741B2, “Compositions and methods for obtaining enriched mesenchymal stem cell cultures” (StemCell Technologies Inc., priority 2013, dated 2018).
Where “and” joins values, the source holds several entries; their conditions need not be identical. Equal values may be shown once. Entries after “also recorded” stand apart in the source; their conditions may differ.

Columns and labels:
[1] = system: mouse CB-derived cells (MSC colonies); assay: Mouse CB-derived CFU-F assay; type: cell-based; settings: 14 days
Description: a. Mouse BM and CB-Derived CFU-F Assay • 1. […] Medium was removed cultures washed with 2 mL PBS. • 4. Cells were fixed by adding 2 mL methanol/well and incubated at room temperature for 5 minutes. • 5. Methanol was removed and plates allowed to air dry for 5 minutes. • 6. To each well, 2 mL Toluidine blue solution was added and incubated for 30 minutes at room temperature. • 7. Toluidine blue solution was removed and wells rinsed with water. • 8. Water was removed and plates allowed to dry. • 9. Colony formation was assessed by enumeration and colony size. Mouse CB-derived cells were isolated as described previously and CFU-F assays setup as described above. […] Cultures were then stained with Toluidine blue and colony formation and appearance assessed. Three independent assays CFU-F assays for both BM- and CB-MSC were setup as in Example 4a and 4b. […] These assays were maintained for 14 days without media change. At the end of day 14, cultures were fixed and stained with toluidine blue and the number of MSC colonies counted.

[2] = system: BM-derived cultures (CD45+/CD11b+ macrophages, Sca1+ monocytes); assay: Flow cytometry of BM-derived expansion cultures; type: cell-based, mouse
Description: (§1) c. Expansion of Human BM and Mouse BM and CB-Derived Cells Assay • 1. […] Cultures were allowed to grow for 10-14 days until adherent cells achieved 70 to 80% confluence. Mouse cultures were maintained under normal (5% CO2) or hypoxic conditions (5% CO2/5% O2) at 37 C in a cell culture incubator. Human cultures were maintained under 5% CO2 at 37 C in a humidified cell culture incubator. • 3. Adherent cells were passaged by releasing cultures from flask. Cultures were washed with 5 mL PBS and then 5 mL of 0.25% trypsin solution ([…] catalogue #07901) was added and the flasks incubated for 10 min at 37 C. To each flask, 5 mL complete medium was added to stop trypsin activity. • 4. Released cells were collected into a tube and centrifuged at 300×g for 5 minutes. • 5. Cells were resuspended in 2 mL of medium and counted using a hemocytometer. • 6. […] P1 cultures were incubated until they reached 70 to 80% confluence. • 8. Passaged cultures can be used at any time from P0 to P10 as needed for different applications.
(§2) d. Flow Cytometry Analysis • 1. Cultures of BM and CB-derived cells were trypsinized for 10 minutes and an equal volume of complete medium was added to cultures to stop trypsin activity • 2. Cell suspension was filtered through a 40 μm strainer, and cells counted using a hemocytometer • 3. Suspension was spun down at 300×g for 5 minutes. • 4. Supernatant was removed and cell pellet resuspended in FACS buffer (PBS with 2% FBS and 1 mM EDTA) • 5. A total of 1×10^5 cells in 300 μL FACS buffer was used for each flow cytometry analysis tube, including unstained, viability, compensation, and isotype controls. • 6. Cell suspensions were stained with fluorophore-labeled antibodies against CD45, CD11b, and Sca1, CD29, and viability dye. • 7. Cell suspensions were analyzed on a flow cytometer using compensation and isotype control to determine laser voltage and gating. • 8. Samples were gated on viable CD45^+ cells and 10,000 events per sample were collected. Alternatively, cells were gated on viable CD45^− cells and out of this gate the proportion of CD29+/Sca1^+ cells obtained.

[3] = system: CB-derived cultures (CD45+/CD11b+ macrophages, Sca1+ monocytes); assay: Flow cytometry of CB-derived expansion cultures; type: cell-based, mouse
Description: as §1, §2

mouse myeloid cells = settings: at 700 nM; cited from earlier work
[4] = system: CSF-1-independent cell line, human fibroblasts, and other endothelial cells; settings: cited from earlier work
[5] = CB-MSC, assay 1, 1 uM GW2580, 1.0 × 10^5 cells plated
[6] = CB-MSC, assay 1, 1 uM GW2580, 2.5 × 10^5 cells plated
[7] = CB-MSC, assay 1, 1 uM GW2580, 5.0 × 10^4 cells plated
[8] = CB-MSC, assay 1, 1 uM GW2580, Sum of the three densities
[9] = CB-MSC, assay 2, 2.5 uM GW2580, 1.0 × 10^6 cells plated
[10] = CB-MSC, assay 2, 2.5 uM GW2580, 2.5 × 10^5 cells plated
[11] = CB-MSC, assay 2, 2.5 uM GW2580, 5.0 × 10^5 cells plated
[12] = CB-MSC, assay 2, 2.5 uM GW2580, Sum of the three densities
[13] = CB-MSC, assay 3, 2.5 uM GW2580, 1.0 × 10^6 cells plated
[14] = CB-MSC, assay 3, 2.5 uM GW2580, 2.5 × 10^5 cells plated
[15] = CB-MSC, assay 3, 2.5 uM GW2580, 5.0 × 10^5 cells plated
[16] = CB-MSC, assay 3, 2.5 uM GW2580, Sum of the three densities
[17] = CB, 1 μM P0-P1 then vehicle P2-P3, analysed at P3, adherent cells
[18] = CB, 1 μM P0-P1 then vehicle P2-P3, analysed at P3, non-adherent cells
[19] = CB, P4, DMSO P0-P2 then 1 μM GW2580 P3-P4, or P4 control cultures EasySep-enriched

With `COc1ccc(COc2ccc(Cc3cnc(N)nc3N)cc2OC)cc1` [GW2580, 5-(3-Methoxy-4-((4-methoxybenzyl)oxy)benzyl)pyrimidine-2,4-diamine] the “overall minimal increase in number of MSC colonies vs control” value ([1]; CB-MSC, 1 or 2.5 uM, three assays) was at least 20%, the “% increase in number of MSC colonies vs control” value (“% increase in number” below) [1, 5] was 51% and the “Number of MSC colonies” value [1, 5] was 77. The “% increase in number” value [1, 6] was 30%, the “Number of MSC colonies” value [1, 6] was 133 and the “% increase in number” value [1, 7] was 70%. For the same compound, the “Number of MSC colonies” value [1, 7] was 46, the “% increase in number” value [1, 8] was 42% and the “Number of MSC colonies” value [1, 8] was 256. The “% increase in number” value [1, 9] was 84%, the “Number of MSC colonies” value [1, 9] was 83 and the “% increase in number” value [1, 10] was 25%. For the same compound, the “Number of MSC colonies” value [1, 10] was 15, the “% increase in number” value [1, 11] was 9% and the “Number of MSC colonies” value [1, 11] was 36. The “% increase in number” value [1, 12] was 49%, the “Number of MSC colonies” value [1, 12] was 134 and the “% increase in number” value [1, 13] was 84%. The “Number of MSC colonies” value [1, 13] was 147, the “% increase in number” value [1, 14] was 25% and the “Number of MSC colonies” value [1, 14] was 35. The “% increase in number” value [1, 15] was 29%, the “Number of MSC colonies” value [1, 15] was 89 and the “% increase in number” value [1, 16] was 53%. The “Number of MSC colonies” value [1, 16] was 271, the “increase in colony number compared to control cultures” value ([1]; CB-derived, 1 μM) was “at least 24%” and the “MSC CFU-F appearance (colony size, macrophages)” value ([1]; CB-derived, 1 μM, Toluidine blue) was “bigger in size and have a much reduced number of macrophages; also recorded: larger, enriched MSC CFU-F that are mostly free of macrophages”. The “number of CD45+/CD11b+/Sca1+ cells” value ([2]; BM, 1 μM) was 55%, the “number of CD45+ cells” value ([2]; BM, 1 μM (control 52%)) was 45% and the “CD11b+/Sca1+ hematopoietic monocytes, of CD45+ cells” value ([2]; BM, 1 μM P0 to P2) was 44%. For the same compound, the “CD11b+/Sca1− mature macrophages, of CD45+ cells” value ([2]; BM, 1 μM P0 to P2) was 56%, the “overall reduction in CD45+ cells” value ([2]; BM, 1 μM P0 to P2) was 18% and the “reduction in CD45+/CD11b+/Sca1+ monocyte differentiation into mature macrophage (increase in Sca1+ fraction vs control)” value ([2]; BM, 1 μM P0 to P2) was 36%. For the same compound, the “CD11b+/Sca1+ hematopoietic monocytes, of CD45+ cells” value ([2]; BM, 1 μM P0 to P3) was 52%, the “CD11b+/Sca1− mature macrophages, of CD45+ cells” value ([2]; BM, 1 μM P0 to P3) was 41% and the “overall reduction in CD45+ cells” value ([2]; BM, 1 μM P0 to P3) was 64%. For the same compound, the “reduction in CD45+/CD11b+/Sca1+ monocyte differentiation into macrophages (monocytes prevented from differentiating)” value ([2]; BM, 1 μM P0 to P3) was > 50% and 52%, the “reduction in CD45+/CD11b+/Sca1− mature macrophage differentiation” value ([2]; BM, 1 μM, at P3) was over 50% and the “number of CD45+/CD11b+/Sca1+ cells” value ([2]; BM, 5 μM) was 40%. The “number of CD45+ cells” value ([2]; BM, 5 μM (control 52%)) was 33%, the “number of CD45+/CD11b+/Sca1+ cells” value ([2]; BM, 10 μM) was 34% and the “number of CD45+ cells” value ([2]; BM, 10 μM (control 52%)) was 28%. The “CD45+/CD11b+ mature macrophages, of total viable cells” value ([2]; BM, P1, 1 μM) was 60% and 62%, the “reduction in macrophages vs control” value ([2]; BM, P1, 1 μM) was 20% and the “CD45+/CD11b+ mature macrophages, of viable cells” value ([2]; BM-derived cultures, 1 μM up to P2) was under 1%. For the same compound, the “dose-response increase in CD45+/CD11b+/Sca1+ hematopoietic monocytes” value (from here on “dose-response increase”) ([3]; CB, 1 μM) was 18%, the “number of CD45+/CD11b+/Sca1+ monocytes” value ([3]; CB, 1 μM (control 7%)) was 25% and the “number of CD45+ cells” value ([3]; CB, 1 μM (control 78%)) was 64%. For the same compound, the “CD45+/CD11b+ mature macrophages” value ([3]; CB, 1 μM (control 93%)) was 75%, the “CD45+/CD11b+/Sca1+ monocytes, of CD45+ cells” value [3, 17] was 2% and the “CD45+/CD11b+/Sca1− mature macrophages, of CD45+ cells” value [3, 17] was 97%. For the same compound, the “CD45+/CD11b+/Sca1+ monocytes, of CD45+ cells” value [3, 18] was under 1%, the “CD45+/CD11b+/Sca1− mature macrophages, of CD45+ cells” value [3, 18] was 99% and the “CD11b+/Sca1+ hematopoietic monocytes, of CD45+ cells” value ([3]; CB, 1 μM P0 to P2) was 28%. For the same compound, the “CD11b+/Sca1− mature macrophages, of CD45+ cells” value ([3]; CB, 1 μM P0 to P2) was 62%, the “overall reduction in CD45+ cells” value ([3]; CB, 1 μM P0 to P2) was 15% and the “reduction in CD45+/CD11b+/Sca1+ monocyte differentiation into mature macrophage (increase in Sca1+ fraction vs control)” value ([3]; CB, 1 μM P0 to P2) was 22%. The “CD11b+/Sca1+ hematopoietic monocytes, of CD45+ cells” value ([3]; CB, 1 μM P0 to P3) was 20%, the “CD11b+/Sca1− mature macrophages, of CD45+ cells” value ([3]; CB, 1 μM P0 to P3) was 76% and the “overall reduction in CD45+ cells” value ([3]; CB, 1 μM P0 to P3) was 55%. The “reduction in CD45+/CD11b+/Sca1+ monocyte differentiation into macrophage (increase in Sca1+ cells vs control)” value ([3]; CB, 1 μM P0 to P3) was 8%, the “reduction in CD45+/CD11b+/Sca1− mature macrophage differentiation” value ([3]; CB, 1 μM, at P3) was 12% and the “dose-response increase” value ([3]; CB, 5 μM) was 32%. For the same compound, the “number of CD45+/CD11b+/Sca1+ monocytes” value ([3]; CB, 5 μM (control 7%)) was 39%, the “number of CD45+ cells” value ([3]; CB, 5 μM (control 78%)) was 36% and the “CD45+/CD11b+ mature macrophages” value ([3]; CB, 5 μM (control 93%)) was 60%. For the same compound, the “dose-response increase” value ([3]; CB, 10 μM) was 41%, the “number of CD45+/CD11b+/Sca1+ monocytes” value ([3]; CB, 10 μM (control 7%)) was 48% and the “number of CD45+ cells” value ([3]; CB, 10 μM (control 78%)) was 30%. For the same compound, the “CD45+/CD11b+ mature macrophages” value ([3]; CB, 10 μM (control 93%)) was 50%, the “CD45+/CD11b+ mature macrophages, of total viable cells” value ([3]; CB, P1, 1 μM) was 34% and the “reduction in macrophages vs control” value ([3]; CB, P1, 1 μM) was 50%. For the same compound, the “CD11b+/Sca1+ monocytes, of CD45+ cells” value [3, 19] was “about 75%”, the “CD11b+/Sca1− mature macrophages, of CD45+ cells” value [3, 19] was “around 25%” and the “CD45+/CD11b+ mature macrophages, of viable cells” value ([3]; CB-derived cultures, 1 μM up to P2) was under 1%. The “inhibition of CSF-1-dependent growth of mouse myeloid cells” value (mouse myeloid cells) was “completely inhibited” and the “sensitivity of CSF-1-independent cell line, human fibroblasts and other endothelial cells to GW2580” value [4] was “highly resistant”.
